Consider 16 compounds from PubChem BioAssay AID248 (DTP/NCI, 2004).

“And” between values parts separate entries of the source, which are not always exact repeats. Equal entries are not always repeated. Inconclusive results and toxic doses are left out.

The experiment concerns L1210 leukemia ip in BDF1 mice, survival T/C. Kind of experiment: NCI In Vivo Anticancer Drug Screen. Data for tumor model L1210 Leukemia (intraperitoneal) in B6D2F1 (BDF1) mice. The conditions noted are these: endpoint: mean survival time, higher = longer survival. In short, it runs like this:
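Value reflects the ratio of survival in compound-treated mice to survival in vehicle-treated controls, with both groups carrying the same transplanted tumor.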

Setting [1] is: dose: 100.0 mg/kg/injection, schedule: Q04DX002 (ip), vehicle: Klucel (hydroxypropylcellulose) (HPC).
[2] abbreviates: dose: 200.0 mg/kg/injection, schedule: Q04DX002 (ip), vehicle: Klucel (hydroxypropylcellulose) (HPC).
The mark [3] stands for this setting: dose: 100.0 mg/kg/injection, schedule: Q04DX003 (ip), vehicle: saline with Tween-80.
Setting [4] is: dose: 200.0 mg/kg/injection, schedule: Q04DX003 (ip), vehicle: saline with Tween-80.
Where [5] appears, read: dose: 400.0 mg/kg/injection, schedule: Q04DX003 (ip), vehicle: saline with Tween-80.
Where [6] appears, read: dose: 100.0 mg/kg/injection, schedule: Q04DX003 (ip), vehicle: Klucel (hydroxypropylcellulose) (HPC).
The mark [7] stands for this setting: dose: 200.0 mg/kg/injection, schedule: Q04DX003 (ip), vehicle: Klucel (hydroxypropylcellulose) (HPC).
Setting [8] is: dose: 400.0 mg/kg/injection, schedule: Q04DX003 (ip), vehicle: Klucel (hydroxypropylcellulose) (HPC).
[9] abbreviates: dose: 50.0 mg/kg/injection, schedule: Q01DX001 (ip), vehicle: saline.
Where [10] appears, read: dose: 100.0 mg/kg/injection, schedule: Q01DX001 (ip), vehicle: saline.
Setting [11] is: dose: 200.0 mg/kg/injection, schedule: Q01DX001 (ip), vehicle: saline.
Where [12] appears, read: dose: 400.0 mg/kg/injection, schedule: Q01DX001 (ip), vehicle: saline.
Where [13] appears, read: dose: 100.0 mg/kg/injection, schedule: Q01DX001 (ip), vehicle: Klucel (hydroxypropylcellulose) (HPC).
The mark [14] stands for this setting: dose: 200.0 mg/kg/injection, schedule: Q01DX001 (ip), vehicle: Klucel (hydroxypropylcellulose) (HPC).
Where [15] appears, read: dose: 400.0 mg/kg/injection, schedule: Q01DX001 (ip), vehicle: Klucel (hydroxypropylcellulose) (HPC).
Setting [16] is: dose: 100.0 mg/kg/injection, schedule: Q01DX009 (ip), vehicle: saline with Tween-80.
[17] abbreviates: dose: 200.0 mg/kg/injection, schedule: Q01DX009 (ip), vehicle: saline with Tween-80.
The mark [18] stands for this setting: dose: 400.0 mg/kg/injection, schedule: Q01DX009 (ip), vehicle: saline with Tween-80.
[19] abbreviates: dose: 100.0 mg/kg/injection, schedule: Q01DX009 (ip), vehicle: Klucel (hydroxypropylcellulose) (HPC).

For `O=C(N=Nc1c(O)[nH]c2ccc(Br)cc12)c1ccco1`, the T/C was 111 % of control under setting [1]; 95 % of control under setting [2]; 95 % of control (dose: 400.0 mg/kg/injection, schedule: Q04DX002 (ip), vehicle: Klucel (hydroxypropylcellulose) (HPC)).
In the case of `CCC(C)(O)C#Cc1ccc(C)nc1` (centres undefined), the T/C is 97 % of control under setting [3], 96 % of control under setting [4] and 94 % of control under setting [5].
Regarding `COc1cccc(/C(C)=N\Nc2ccc([N+](=O)[O-])cc2[N+](=O)[O-])c1OC`, the T/C (dose: 50.0 mg/kg/injection, schedule: Q01DX009 (ip), vehicle: saline) was 92 % of control; the T/C (dose: 100.0 mg/kg/injection, schedule: Q01DX009 (ip), vehicle: saline) was 90 % of control; the T/C under setting [3] was 94 % of control and 96 % of control; the T/C under setting [4] was 87 % of control; the T/C under setting [5] is 86 % of control and 92 % of control.
Turning to `[O-][N+]1(c2ccc(Cl)cc2)CC[N+]([O-])(c2ccc(Cl)cc2)CC1` (centres undefined), the T/C under setting [6] is 96 % of control, the T/C under setting [7] was 94 % of control and the T/C under setting [8] was 100 % of control.
Take `OCC(F)(F)C(F)F`: the T/C runs as follows: under setting [9], 91 % of control; under setting [10], 94 % of control; under setting [11], 91 % of control; under setting [12], 100 % of control.
Regarding `COC(=O)C1=C(NC(=O)Nc2ccc(Cl)cc2)OC(C)(C)C1c1ccc(Cl)cc1` (centres undefined), the T/C by setting is: (dose: 12.5 mg/kg/injection, schedule: Q01DX001 (ip), vehicle: saline) 92 % of control; (dose: 12.5 mg/kg/injection, schedule: Q01DX009 (ip), vehicle: saline) 86 % of control; (dose: 12.5 mg/kg/injection, schedule: Q04DX003 (ip), vehicle: acetone) 93 % of control; (dose: 25.0 mg/kg/injection, schedule: Q01DX001 (ip), vehicle: saline) 87 % of control; (dose: 25.0 mg/kg/injection, schedule: Q01DX009 (ip), vehicle: saline) 90 % of control; (dose: 25.0 mg/kg/injection, schedule: Q04DX003 (ip), vehicle: acetone) 100 % of control. For the same compound, the T/C under setting [9] is 86 % of control and the T/C (dose: 50.0 mg/kg/injection, schedule: Q04DX003 (ip), vehicle: acetone) is 96 % of control.
In the case of `O=C(c1cccc([N+](=O)[O-])c1)c1cccc([N+](=O)[O-])c1`, the T/C by setting is: under setting [13], 117 % of control; under setting [14], 97 % of control; under setting [15], 94 % of control.
As to `CN(C)c1ccc(/C(=N\O)c2cc[n+](C)cc2)cc1`, the T/C by setting is: (dose: 1.56 mg/kg/injection, schedule: Q01DX009 (ip), vehicle: saline) 98 % of control; (dose: 3.13 mg/kg/injection, schedule: Q01DX009 (ip), vehicle: saline) 111 % of control; (dose: 6.25 mg/kg/injection, schedule: Q01DX009 (ip), vehicle: saline) 104 % of control.
Regarding `O=S1(=O)CC(c2ccccc2)=NN=C(c2ccccc2)C1`, the T/C by setting is: under setting [10], 92 % of control; under setting [11], 86 % of control; under setting [12], 92 % of control.
Take `CCCCC(CC)C(O)CC(O)CC` (centres undefined): the T/C reads like this: under setting [16], 92 % of control; under setting [17], 92 % of control; under setting [18], 95 % of control.
On to `O=S(=O)(O)CCN1CCOCC1`, for which the T/C runs as follows: under setting [19], 100 % of control; (dose: 400.0 mg/kg/injection, schedule: Q01DX009 (ip), vehicle: Klucel (hydroxypropylcellulose) (HPC)) 100 % of control.
`OC(c1ccccc1)c1nnc(C(O)c2ccccc2)nn1` (centres undefined): the T/C under setting [13] was 92 % of control; the T/C under setting [6] was 94 % of control; the T/C under setting [14] was 95 % of control; the T/C under setting [7] was 93 % of control; the T/C under setting [15] is 95 % of control; the T/C under setting [8] is 100 % of control.
For `N#CN(Cc1ccc(Cl)cc1Cl)C(=O)OCOc1ccc(Cl)cc1`, the T/C reads like this: under setting [16], 91 % of control; under setting [17], 96 % of control; under setting [18], 107 % of control.
As to `C=CCc1ccc(OC(=O)Nc2ccc(C(=O)OCC)cc2)c(OC)c1`, the T/C under setting [19] is 90 % of control and the T/C (dose: 200.0 mg/kg/injection, schedule: Q01DX009 (ip), vehicle: Klucel (hydroxypropylcellulose) (HPC)) was 90 % of control.
Regarding `CN1CCC2(CC1)C(=O)N(Nc1ccccc1)C(=O)C2c1ccccc1` (centres undefined), the T/C is, setting by setting: under setting [1], 101 % of control; under setting [2], 93 % of control.
Consider `CC1CN=C(c2ccc(NC(=O)c3ccc(C(=O)Nc4ccc(C5=NCC(C)N5)cc4)cc3)cc2)N1` (centres undefined), for which the T/C is 100 % of control (dose: 0.5 mg/kg/injection, schedule: Q01DX Z (ip), vehicle: carboxymethylcellulose (CMC)); 117 % of control (dose: 1.0 mg/kg/injection, schedule: Q01DX Z (ip), vehicle: carboxymethylcellulose (CMC)); 119 % of control (dose: 1.0 mg/kg/injection, schedule: Q01DX Z (ip), vehicle: saline); 198 % of control (dose: 1.9 mg/kg/injection, schedule: Q01DX Z (ip), vehicle: carboxymethylcellulose (CMC)); 173 % of control and 193 % of control (dose: 2.9 mg/kg/injection, schedule: Q01DX Z (ip), vehicle: carboxymethylcellulose (CMC)); 228 % of control (dose: 3.8 mg/kg/injection, schedule: Q01DX Z (ip), vehicle: carboxymethylcellulose (CMC)). The T/C runs as follows: (dose: 4.3 mg/kg/injection, schedule: Q01DX Z (ip), vehicle: carboxymethylcellulose (CMC)) 157 % of control; (dose: 6.5 mg/kg/injection, schedule: Q01DX Z (ip), vehicle: carboxymethylcellulose (CMC)) 207 % of control; (dose: 7.5 mg/kg/injection, schedule: Q01DX Z (ip), vehicle: carboxymethylcellulose (CMC)) 337 % of control; (dose: 9.7 mg/kg/injection, schedule: Q01DX Z (ip), vehicle: carboxymethylcellulose (CMC)) 205 % of control; (dose: 15.0 mg/kg/injection, schedule: Q01DX Z (ip), vehicle: carboxymethylcellulose (CMC)) 243 % of control; (dose: 30.0 mg/kg/injection, schedule: Q01DX Z (ip), vehicle: carboxymethylcellulose (CMC)) 175 % of control. The T/C reads like this: (dose: 30.0 mg/kg/injection, schedule: Q01DX Z (oral), vehicle: carboxymethylcellulose (CMC)) 97 % of control; (dose: 32.8 mg/kg/injection, schedule: Q01DX Z (ip), vehicle: carboxymethylcellulose (CMC)) 151 % of control; (dose: 60.0 mg/kg/injection, schedule: Q01DX Z (ip), vehicle: saline) 119 % of control; (dose: 60.0 mg/kg/injection, schedule: Q01DX Z (oral), vehicle: carboxymethylcellulose (CMC)) 94 % of control; (dose: 62.5 mg/kg/injection, schedule: Q## X010 (oral), vehicle: saline) 102 % of control; (dose: 74.0 mg/kg/injection, schedule: Q01DX Z (ip), vehicle: carboxymethylcellulose (CMC)) 114 % of control. Also, the T/C reads like this: (dose: 111.0 mg/kg/injection, schedule: Q01DX Z (ip), vehicle: carboxymethylcellulose (CMC)) 101 % of control; (dose: 120.0 mg/kg/injection, schedule: Q01DX Z (ip), vehicle: saline) 114 % of control; (dose: 120.0 mg/kg/injection, schedule: Q01DX Z (oral), vehicle: carboxymethylcellulose (CMC)) 97 % of control; (dose: 125.0 mg/kg/injection, schedule: Q## X010 (oral), vehicle: saline) 102 % of control; (dose: 240.0 mg/kg/injection, schedule: Q01DX Z (oral), vehicle: carboxymethylcellulose (CMC)) 94 % of control; (dose: 250.0 mg/kg/injection, schedule: Q## X010 (oral), vehicle: saline) 102 % of control. For the same compound, the T/C was 117 % of control (dose: 375.0 mg/kg/injection, schedule: Q01DX Z (ip), vehicle: carboxymethylcellulose (CMC)) and 103 % of control (dose: 500.0 mg/kg/injection, schedule: Q## X010 (oral), vehicle: saline).
